Data: ChEMBL document CHEMBL1240398, “Surveillance and correlation of antibiotic prescription and resistance of Gram-negative bacteria in Singaporean hospitals” (2010)

Columns and labels:
Format in all cases: functional
Acinetobacter sp. [1] = test: Antimicrobial activity against Acinetobacter sp. clinical isolate assessed as resistance isolates by disk diffusion method
Acinetobacter sp. [2] = test: Antimicrobial activity against Acinetobacter sp. isolate obtained from patient's blood assessed as resistance isolates by disk diffusion method
Pseudomonas aeruginosa [3] = test: Antimicrobial activity against Pseudomonas aeruginosa clinical isolate assessed as resistance isolates by disk diffusion method
Pseudomonas aeruginosa [4] = test: Antimicrobial activity against Pseudomonas aeruginosa isolate obtained from patient's blood assessed as resistance isolates by disk diffusion method
Escherichia coli [5] = test: Antimicrobial activity against Escherichia coli clinical isolate assessed as resistance isolates by disk diffusion method
Escherichia coli [6] = test: Antimicrobial activity against Escherichia coli isolate obtained from patient's blood assessed as resistance isolates by disk diffusion method
Klebsiella pneumoniae [7] = test: Antimicrobial activity against Klebsiella pneumoniae clinical isolate assessed as resistance isolates by disk diffusion method
Klebsiella pneumoniae [8] = test: Antimicrobial activity against Klebsiella pneumoniae isolate obtained from patient's blood assessed as resistance isolates by disk diffusion method

SMILES | Activity (Acinetobacter sp. [1]) | Activity (Acinetobacter sp. [2]) | Activity (Pseudomonas aeruginosa [3]) | Activity (Pseudomonas aeruginosa [4]) | Activity (Escherichia coli [5]) | Activity (Escherichia coli [6]) | Activity (Klebsiella pneumoniae [7]) | Activity (Klebsiella pneumoniae [8])
C[C@@H](O)[C@H]1C(=O)N2C(C(=O)O)=C(SCCNC=N)C[C@H]12 [IMIPENEM ANHYDROUS] | 46.2% | 50% | 7.5% | 12.8% |  |  |  | 
CO/N=C(\C(=O)N[C@@H]1C(=O)N2C(C(=O)O)=C(CSc3nc(=O)c(O)nn3C)CS[C@H]12)c1csc(N)n1 [CEFTRIAXONE] |  |  |  |  | 20% | 21.7% | 32.3% | 27.4%
O=C(O)c1cn(C2CC2)c2cc(N3CCNCC3)c(F)cc2c1=O [CIPROFLOXACIN] |  |  |  |  |  | 31% |  | 24%
